The test system of test [1] is Bacillus anthracis. The test can be described thus: Effect on growth of pX01 and pX02 deficient Bacillus anthracis delta-Sterne infected in hollow-fiber pharmacodynamic model assessed as maximal vegetative plus spore phase population size at 500 mg every 12 hrs. In kind it is functional.
For test [2], the system named is Bacillus anthracis. The test can be described thus: Antibacterial activity against pX01 and pX02 deficient Bacillus anthracis delta-Sterne after 24 hrs. The test is classed as functional.

In brackets after ≈: the same amount, converted by molar mass.

From ChEMBL document CHEMBL1275534, “Is 60 days of ciprofloxacin administration necessary for postexposure prophylaxis for Bacillus anthracis?” (Antimicrob Agents Chemother, 2008) come the findings set out here.

By MBC is commonly meant the smallest concentration meeting the test's criterion for killing. High values mean weaker bactericidal potency, low ones greater bactericidal potency.

In the case of `O=C(O)c1cn(C2CC2)c2cc(N3CCNCC3)c(F)cc2c1=O` [CIPROFLOXACIN], the log10CFU/ml in the test with Bacillus anthracis [1] was 554300000. Further, the MBC in the test on Bacillus anthracis [2] amounted to 1 µg/mL (≈ 3.02 µM).
